From patent publication US20140243286A1, “BROMODOMAIN LIGANDS CAPABLE OF DIMERIZING IN AN AQUEOUS SOLUTION, AND METHODS OF USING SAME” (Coferon, Inc., priority 2011, published 2014) come the findings set out here.

Like-named read-outs stand apart in the source and are kept apart here.

By IC50 is commonly meant the concentration at which inhibition is half-maximal.

The target in one experiment is BRD2 (Homo sapiens, UniProt P25440). Put plainly: Fluorescence anisotropy (FA) binding assay, BRD2. How it is done:
(§1) Fluorescence Anisotropy (FA) Binding Assays.
(§2) FA assays were performed as described in Chung et al., J. Med Chem., 2011 54(11): 3827-38 except that protein concentrations were 125 nM and plates were read on a Spectramax M5 plate reader.

Another experiment addresses BRD3 (Homo sapiens, UniProt Q15059). Put plainly: Fluorescence anisotropy (FA) binding assay, BRD3. How it is done: as §1, §2
For orientation: In fluorescence polarisation assays a small probe gives low polarisation when free and higher when bound to something large.

In another experiment the target is BRD4 (Homo sapiens, UniProt O60885). Put plainly: Fluorescence anisotropy (FA) binding assay, BRD4. How it is done: as §1, §2
Where [1] appears, read: BRD2, protein 125 nM, read-out: IC50 range (FA assay) BRD2, BRD-N monomers.
Where [2] appears, read: BRD3, protein 125 nM, read-out: IC50 range (FA assay) BRD3, BRD-N monomers.
[3] abbreviates: BRD4, protein 125 nM, read-out: IC50 range (FA assay) BRD4, BRD-N monomers.

Sequence of BRD2 (P25440 whole entry): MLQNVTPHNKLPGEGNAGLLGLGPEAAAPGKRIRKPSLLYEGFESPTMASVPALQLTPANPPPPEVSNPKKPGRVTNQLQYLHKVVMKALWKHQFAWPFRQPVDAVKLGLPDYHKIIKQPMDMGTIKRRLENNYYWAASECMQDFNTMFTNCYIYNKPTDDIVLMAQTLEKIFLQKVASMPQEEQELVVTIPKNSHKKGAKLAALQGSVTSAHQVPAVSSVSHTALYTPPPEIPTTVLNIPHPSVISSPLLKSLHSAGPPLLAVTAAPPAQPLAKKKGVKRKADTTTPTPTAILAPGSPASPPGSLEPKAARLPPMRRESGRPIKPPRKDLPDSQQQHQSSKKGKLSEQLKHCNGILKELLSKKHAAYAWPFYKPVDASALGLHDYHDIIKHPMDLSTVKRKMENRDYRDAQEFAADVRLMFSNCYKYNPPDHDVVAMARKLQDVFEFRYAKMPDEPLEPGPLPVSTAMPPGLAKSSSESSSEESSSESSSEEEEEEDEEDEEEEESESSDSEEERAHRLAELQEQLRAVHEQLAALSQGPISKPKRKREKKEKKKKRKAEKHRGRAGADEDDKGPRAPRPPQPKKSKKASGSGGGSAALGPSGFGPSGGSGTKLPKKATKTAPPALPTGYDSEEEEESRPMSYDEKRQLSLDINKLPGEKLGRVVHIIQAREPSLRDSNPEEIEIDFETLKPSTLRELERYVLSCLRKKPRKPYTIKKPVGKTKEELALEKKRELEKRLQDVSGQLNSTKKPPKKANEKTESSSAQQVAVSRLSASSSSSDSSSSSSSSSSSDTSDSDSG
Sequence of BRD3 (Q15059 whole entry): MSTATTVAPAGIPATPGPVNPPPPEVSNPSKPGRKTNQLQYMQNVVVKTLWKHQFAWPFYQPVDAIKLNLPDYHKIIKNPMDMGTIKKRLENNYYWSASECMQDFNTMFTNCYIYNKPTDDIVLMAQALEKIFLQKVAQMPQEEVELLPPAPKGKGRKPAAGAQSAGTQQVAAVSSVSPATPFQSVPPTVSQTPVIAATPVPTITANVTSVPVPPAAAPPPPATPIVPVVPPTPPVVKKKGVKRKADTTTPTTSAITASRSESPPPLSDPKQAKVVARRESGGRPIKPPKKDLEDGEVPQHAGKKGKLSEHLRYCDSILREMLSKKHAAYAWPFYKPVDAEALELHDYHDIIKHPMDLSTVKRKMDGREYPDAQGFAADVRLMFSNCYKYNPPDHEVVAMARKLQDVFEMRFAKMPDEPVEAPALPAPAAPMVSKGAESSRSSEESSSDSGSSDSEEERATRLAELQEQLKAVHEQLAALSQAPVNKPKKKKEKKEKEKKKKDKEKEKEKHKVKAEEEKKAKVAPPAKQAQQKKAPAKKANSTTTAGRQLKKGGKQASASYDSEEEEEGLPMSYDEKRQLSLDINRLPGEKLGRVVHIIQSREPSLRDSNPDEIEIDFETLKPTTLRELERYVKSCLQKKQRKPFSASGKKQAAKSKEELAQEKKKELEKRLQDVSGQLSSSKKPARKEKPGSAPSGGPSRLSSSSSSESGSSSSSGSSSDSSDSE

Turning to `COc1ccc2c(c1)C(c1ccc(Cl)cc1)=N[C@@H](CC(=O)NCCCNC(=O)c1ccc(O)c(O)c1)c1nnc(C)n1-2` [BRD-N-03, N-(3-(2-((4S)-6-(4-chlorophenyl)-8-methoxy-1-methyl-4H-benzo[f][1,2,4]triazolo[4,3-a][1,4]diazepin-4-yl)acetamido)propyl)-3,4-dihydroxybenzamide], the 50% inhibitory concentration (IC50) at BRD2 (setting [1]), on BRD3 (setting [2]) and on BRD4 (setting [3]) was 50 to 1000 nM throughout.
Regarding `COc1ccc2c(c1)C(c1ccc(Cl)cc1)=N[C@@H](CC(=O)NCCCNC(=O)c1cccc(O)c1O)c1nnc(C)n1-2` [BRD-N-04, N-(3-(2-((4S)-6-(4-chlorophenyl)-8-methoxy-1-methyl-4H-benzo[f][1,2,4]triazolo[4,3-a][1,4]diazepin-4-yl)acetamido)propyl)-2,3-dihydroxybenzamide], the half-maximal inhibitory concentration (IC50) at BRD2, at BRD3 and at BRD4 was 50 to 1000 nM in each case.
For `COc1ccc2c(c1)C(c1ccc(Cl)cc1)=N[C@@H](CC(=O)NCCCCNC(=O)c1ccc(O)c(O)c1)c1nnc(C)n1-2` [BRD-N-05, N-(4-(2-((4S)-6-(4-chlorophenyl)-8-methoxy-1-methyl-4H-benzo[f][1,2,4]triazolo[4,3-a][1,4]diazepin-4-yl)acetamido)butyl)-3,4-dihydroxybenzamide], the 50% inhibitory concentration (IC50) on BRD2, at BRD3 and at BRD4 was 50 to 1000 nM each time.
As to `COc1ccc2c(c1)C(c1ccc(Cl)cc1)=N[C@@H](CC(=O)NCCCCNC(=O)c1cccc(O)c1O)c1nnc(C)n1-2` [BRD-N-06, N-(4-(2-((4S)-6-(4-chlorophenyl)-8-methoxy-1-methyl-4H-benzo[f][1,2,4]triazolo[4,3-a][1,4]diazepin-4-yl)acetamido)butyl)-2,3-dihydroxybenzamide], the half-maximal inhibitory concentration (IC50) at BRD2 was in the range of 50 to 1000 nM; at BRD3 it was 1000 to 30000 nM; at BRD4, 50 to 1000 nM.
With `COc1ccc2c(c1)C(c1ccc(Cl)cc1)=N[C@@H](CC(=O)NCCCCCNC(=O)c1ccc(O)c(O)c1)c1nnc(C)n1-2` [BRD-N-07, N-(5-(2-((4S)-6-(4-chlorophenyl)-8-methoxy-1-methyl-4H-benzo[f][1,2,4]triazolo[4,3-a][1,4]diazepin-4-yl)acetamido)pentyl)-3,4-dihydroxybenzamide], the IC50 at BRD2 (setting [1]), at BRD3 (setting [2]) and at BRD4 (setting [3]) was 50 to 1000 nM each time.
Take `COc1ccc2c(c1)C(c1ccc(Cl)cc1)=N[C@@H](CC(=O)NCCCCCNC(=O)c1cccc(O)c1O)c1nnc(C)n1-2` [BRD-N-08, N-(5-(2-((4S)-6-(4-chlorophenyl)-8-methoxy-1-methyl-4H-benzo[f][1,2,4]triazolo[4,3-a][1,4]diazepin-4-yl)acetamido)pentyl)-2,3-dihydroxybenzamide]: the concentration for half-maximal inhibition (IC50) at BRD2 (setting [1]), on BRD3 (setting [2]) and on BRD4 (setting [3]) was 50 to 1000 nM in each case.
On to `COc1ccc2c(c1)C(c1ccc(Cl)cc1)=N[C@@H](CC(=O)NCc1ccc(O)c(O)c1)c1nnc(C)n1-2` [BRD-N-09, (S)-2-(6-(4-chlorophenyl)-8-methoxy-1-methyl-4H-benzo[f][1,2,4]triazolo[4,3-a][1,4]diazepin-4-yl)-N-(3,4-dihydroxybenzyl)acetamide], for which the 50% inhibitory concentration (IC50) at BRD2 (setting [1]), at BRD3 (setting [2]) and at BRD4 (setting [3]) was 50 to 1000 nM each time.
`COc1ccc2c(c1)C(c1ccc(Cl)cc1)=N[C@@H](CC(=O)NCCc1ccc(O)c(O)c1)c1nnc(C)n1-2` [BRD-N-10, (S)-2-(6-(4-chlorophenyl)-8-methoxy-1-methyl-4H-benzo[f][1,2,4]triazolo[4,3-a][1,4]diazepin-4-yl)-N-(3,4-dihydroxyphenethyl)acetamide]: the half-maximal inhibitory concentration (IC50) on BRD2 (setting [1]), at BRD3 (setting [2]) and at BRD4 (setting [3]) was 50 to 1000 nM each time.
